Reference: patent publication US11208412B2 (DAEGU-GYEONGBUK MEDICAL INNOVATION FOUNDATION, priority 2017, dated 2021)

Columns and labels:
Test in all cases: Kinase selectivity, DiscoverX scanMAX Kinase assay panel (% control)
Type in all cases: binding
[1] = target: T1, kinases of the scanMAX Kinase assay panel (Homo sapiens, UniProt Q04771); details: ACVR1; 1 uM
T1 construct: purchased DiscoverX Co. (contract measurement) scanMAX Kinase assay panel
T1 sequence (Q04771 21-509): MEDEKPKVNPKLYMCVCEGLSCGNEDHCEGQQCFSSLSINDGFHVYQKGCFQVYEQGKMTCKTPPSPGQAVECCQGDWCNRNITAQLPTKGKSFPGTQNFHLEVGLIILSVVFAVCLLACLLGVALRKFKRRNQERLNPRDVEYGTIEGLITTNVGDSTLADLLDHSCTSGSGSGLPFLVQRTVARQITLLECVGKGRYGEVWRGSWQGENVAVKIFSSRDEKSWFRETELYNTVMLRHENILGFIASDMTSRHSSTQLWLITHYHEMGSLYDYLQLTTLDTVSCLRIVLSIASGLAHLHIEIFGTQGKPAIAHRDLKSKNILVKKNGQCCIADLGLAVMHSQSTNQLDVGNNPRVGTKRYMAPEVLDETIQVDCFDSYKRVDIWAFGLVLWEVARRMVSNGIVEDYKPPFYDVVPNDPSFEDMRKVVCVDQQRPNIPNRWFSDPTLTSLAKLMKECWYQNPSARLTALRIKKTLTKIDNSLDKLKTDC
In short: (§1)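 Single-point screen, 1 uM cpd in DMSO. % ctrl = (cpd − pos ctrl)/(neg ctrl − pos ctrl)×100; pos ctrl = 0%, DMSO neg ctrl = 100%. Hit cutoff <35%.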

[2] = target: T2, kinases of the scanMAX Kinase assay panel (Homo sapiens, UniProt P00533); details: EGFR; 1 uM
T2 construct: purchased DiscoverX Co. (contract measurement) scanMAX Kinase assay panel
In short: as §1

[3] = target: T3, kinases of the scanMAX Kinase assay panel (Homo sapiens, UniProt P06213); details: INSR; 1 uM
T3 construct: purchased DiscoverX Co. (contract measurement) scanMAX Kinase assay panel
In short: as §1

[4] = target: T4, kinases of the scanMAX Kinase assay panel (Homo sapiens, UniProt Q9Y3S1); details: kinase WNK2; 1 uM in DMSO
T4 construct: purchased DiscoverX Co. (contract measurement) scanMAX Kinase assay panel
In short: as §1

[5] = target: T5, kinases of the scanMAX Kinase assay panel (Homo sapiens, UniProt O14965); details: AURKA; 1 uM
T5 construct: purchased DiscoverX Co. (contract measurement) scanMAX Kinase assay panel
T5 sequence (O14965 1-403): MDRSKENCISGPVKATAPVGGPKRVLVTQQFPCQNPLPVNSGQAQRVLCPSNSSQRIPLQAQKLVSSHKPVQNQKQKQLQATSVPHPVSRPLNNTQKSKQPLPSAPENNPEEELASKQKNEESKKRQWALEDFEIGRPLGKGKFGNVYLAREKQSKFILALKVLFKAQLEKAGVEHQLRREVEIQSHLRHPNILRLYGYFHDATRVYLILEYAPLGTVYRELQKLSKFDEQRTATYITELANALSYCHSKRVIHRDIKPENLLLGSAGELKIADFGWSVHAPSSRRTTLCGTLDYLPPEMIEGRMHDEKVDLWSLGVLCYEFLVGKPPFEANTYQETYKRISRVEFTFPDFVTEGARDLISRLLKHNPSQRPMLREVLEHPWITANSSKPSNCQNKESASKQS
In short: as §1

[6] = target: T6, kinases of the scanMAX Kinase assay panel (Homo sapiens, UniProt Q5S007); details: LRRK2; 1 uM
T6 construct: purchased DiscoverX Co. (contract measurement) scanMAX Kinase assay panel
In short: as §1

[7] = target: T7, kinases of the scanMAX Kinase assay panel (Homo sapiens, UniProt P0C264); details: kinase SgK110; 1 uM in DMSO
T7 construct: purchased DiscoverX Co. (contract measurement) scanMAX Kinase assay panel
T7 sequence (P0C264 1-359): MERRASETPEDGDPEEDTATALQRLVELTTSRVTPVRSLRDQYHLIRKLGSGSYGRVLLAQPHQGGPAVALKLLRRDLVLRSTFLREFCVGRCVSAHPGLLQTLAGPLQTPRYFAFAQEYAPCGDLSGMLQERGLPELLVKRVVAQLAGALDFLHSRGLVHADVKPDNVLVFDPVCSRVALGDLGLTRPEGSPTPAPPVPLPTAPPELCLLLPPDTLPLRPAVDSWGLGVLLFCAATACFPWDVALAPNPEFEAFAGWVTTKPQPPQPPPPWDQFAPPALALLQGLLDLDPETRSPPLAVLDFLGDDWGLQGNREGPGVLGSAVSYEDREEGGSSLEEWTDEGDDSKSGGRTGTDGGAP
In short: as §1

[8] = target: T8, kinases of the scanMAX Kinase assay panel (Homo sapiens, UniProt Q13188); details: MST2; 1 uM
T8 construct: purchased DiscoverX Co. (contract measurement) scanMAX Kinase assay panel
T8 sequence (Q13188 1-491): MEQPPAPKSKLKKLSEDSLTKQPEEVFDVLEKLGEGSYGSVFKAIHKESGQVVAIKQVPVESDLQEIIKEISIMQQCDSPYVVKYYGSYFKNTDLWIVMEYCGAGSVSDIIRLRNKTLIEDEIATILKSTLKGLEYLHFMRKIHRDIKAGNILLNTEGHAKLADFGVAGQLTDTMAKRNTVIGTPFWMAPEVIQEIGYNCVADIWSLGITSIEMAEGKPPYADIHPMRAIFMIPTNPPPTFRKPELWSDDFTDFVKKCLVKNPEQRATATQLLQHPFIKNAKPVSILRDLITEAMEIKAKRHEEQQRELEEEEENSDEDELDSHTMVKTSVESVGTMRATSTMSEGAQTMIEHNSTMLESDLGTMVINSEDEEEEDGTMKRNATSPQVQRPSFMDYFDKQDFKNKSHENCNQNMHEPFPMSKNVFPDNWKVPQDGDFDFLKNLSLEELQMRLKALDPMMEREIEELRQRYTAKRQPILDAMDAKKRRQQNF
In short: as §1

[9] = target: T9, kinases of the scanMAX Kinase assay panel (Homo sapiens, UniProt Q14012); details: CAMK1; 1 uM
T9 construct: purchased DiscoverX Co. (contract measurement) scanMAX Kinase assay panel
In short: as §1

T2 sequence (P00533 25-1210): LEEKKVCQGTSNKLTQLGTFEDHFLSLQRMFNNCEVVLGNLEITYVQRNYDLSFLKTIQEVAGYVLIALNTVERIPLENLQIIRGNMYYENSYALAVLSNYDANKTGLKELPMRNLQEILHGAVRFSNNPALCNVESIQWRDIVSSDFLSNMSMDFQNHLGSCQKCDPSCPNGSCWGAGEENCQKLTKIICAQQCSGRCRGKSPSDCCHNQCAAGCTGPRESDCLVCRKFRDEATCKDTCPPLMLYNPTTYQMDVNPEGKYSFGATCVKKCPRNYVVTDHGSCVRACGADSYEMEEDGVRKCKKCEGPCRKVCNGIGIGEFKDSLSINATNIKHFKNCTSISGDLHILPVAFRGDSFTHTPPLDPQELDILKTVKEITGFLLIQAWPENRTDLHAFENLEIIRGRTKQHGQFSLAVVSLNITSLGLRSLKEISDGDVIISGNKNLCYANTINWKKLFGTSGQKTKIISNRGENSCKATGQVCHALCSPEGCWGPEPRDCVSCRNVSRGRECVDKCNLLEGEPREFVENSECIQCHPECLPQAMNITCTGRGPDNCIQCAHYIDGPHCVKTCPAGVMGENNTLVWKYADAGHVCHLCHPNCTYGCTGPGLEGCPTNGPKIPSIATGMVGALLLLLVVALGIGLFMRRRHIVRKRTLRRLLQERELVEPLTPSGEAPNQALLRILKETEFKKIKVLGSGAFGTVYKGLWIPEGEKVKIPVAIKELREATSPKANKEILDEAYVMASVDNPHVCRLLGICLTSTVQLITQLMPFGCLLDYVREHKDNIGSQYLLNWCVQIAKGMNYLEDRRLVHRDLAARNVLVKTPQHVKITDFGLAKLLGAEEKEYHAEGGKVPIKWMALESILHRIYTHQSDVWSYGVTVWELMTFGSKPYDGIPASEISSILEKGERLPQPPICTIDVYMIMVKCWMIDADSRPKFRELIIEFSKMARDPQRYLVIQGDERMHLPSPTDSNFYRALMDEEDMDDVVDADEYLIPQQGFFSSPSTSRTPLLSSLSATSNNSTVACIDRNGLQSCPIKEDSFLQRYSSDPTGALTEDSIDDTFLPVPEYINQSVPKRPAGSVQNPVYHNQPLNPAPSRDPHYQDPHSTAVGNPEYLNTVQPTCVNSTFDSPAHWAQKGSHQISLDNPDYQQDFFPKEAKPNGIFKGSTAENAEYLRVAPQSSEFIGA
T9 sequence (Q14012 whole entry): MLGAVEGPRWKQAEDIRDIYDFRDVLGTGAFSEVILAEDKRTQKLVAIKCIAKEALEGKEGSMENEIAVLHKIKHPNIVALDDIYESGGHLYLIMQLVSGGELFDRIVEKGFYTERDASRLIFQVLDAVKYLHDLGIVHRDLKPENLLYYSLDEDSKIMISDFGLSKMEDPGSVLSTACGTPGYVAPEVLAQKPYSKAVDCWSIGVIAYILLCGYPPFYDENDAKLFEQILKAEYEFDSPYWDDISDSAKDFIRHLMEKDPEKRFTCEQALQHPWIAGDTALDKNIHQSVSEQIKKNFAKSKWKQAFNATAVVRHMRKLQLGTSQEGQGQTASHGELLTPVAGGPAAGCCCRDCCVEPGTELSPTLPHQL
T6 sequence (Q5S007 whole entry): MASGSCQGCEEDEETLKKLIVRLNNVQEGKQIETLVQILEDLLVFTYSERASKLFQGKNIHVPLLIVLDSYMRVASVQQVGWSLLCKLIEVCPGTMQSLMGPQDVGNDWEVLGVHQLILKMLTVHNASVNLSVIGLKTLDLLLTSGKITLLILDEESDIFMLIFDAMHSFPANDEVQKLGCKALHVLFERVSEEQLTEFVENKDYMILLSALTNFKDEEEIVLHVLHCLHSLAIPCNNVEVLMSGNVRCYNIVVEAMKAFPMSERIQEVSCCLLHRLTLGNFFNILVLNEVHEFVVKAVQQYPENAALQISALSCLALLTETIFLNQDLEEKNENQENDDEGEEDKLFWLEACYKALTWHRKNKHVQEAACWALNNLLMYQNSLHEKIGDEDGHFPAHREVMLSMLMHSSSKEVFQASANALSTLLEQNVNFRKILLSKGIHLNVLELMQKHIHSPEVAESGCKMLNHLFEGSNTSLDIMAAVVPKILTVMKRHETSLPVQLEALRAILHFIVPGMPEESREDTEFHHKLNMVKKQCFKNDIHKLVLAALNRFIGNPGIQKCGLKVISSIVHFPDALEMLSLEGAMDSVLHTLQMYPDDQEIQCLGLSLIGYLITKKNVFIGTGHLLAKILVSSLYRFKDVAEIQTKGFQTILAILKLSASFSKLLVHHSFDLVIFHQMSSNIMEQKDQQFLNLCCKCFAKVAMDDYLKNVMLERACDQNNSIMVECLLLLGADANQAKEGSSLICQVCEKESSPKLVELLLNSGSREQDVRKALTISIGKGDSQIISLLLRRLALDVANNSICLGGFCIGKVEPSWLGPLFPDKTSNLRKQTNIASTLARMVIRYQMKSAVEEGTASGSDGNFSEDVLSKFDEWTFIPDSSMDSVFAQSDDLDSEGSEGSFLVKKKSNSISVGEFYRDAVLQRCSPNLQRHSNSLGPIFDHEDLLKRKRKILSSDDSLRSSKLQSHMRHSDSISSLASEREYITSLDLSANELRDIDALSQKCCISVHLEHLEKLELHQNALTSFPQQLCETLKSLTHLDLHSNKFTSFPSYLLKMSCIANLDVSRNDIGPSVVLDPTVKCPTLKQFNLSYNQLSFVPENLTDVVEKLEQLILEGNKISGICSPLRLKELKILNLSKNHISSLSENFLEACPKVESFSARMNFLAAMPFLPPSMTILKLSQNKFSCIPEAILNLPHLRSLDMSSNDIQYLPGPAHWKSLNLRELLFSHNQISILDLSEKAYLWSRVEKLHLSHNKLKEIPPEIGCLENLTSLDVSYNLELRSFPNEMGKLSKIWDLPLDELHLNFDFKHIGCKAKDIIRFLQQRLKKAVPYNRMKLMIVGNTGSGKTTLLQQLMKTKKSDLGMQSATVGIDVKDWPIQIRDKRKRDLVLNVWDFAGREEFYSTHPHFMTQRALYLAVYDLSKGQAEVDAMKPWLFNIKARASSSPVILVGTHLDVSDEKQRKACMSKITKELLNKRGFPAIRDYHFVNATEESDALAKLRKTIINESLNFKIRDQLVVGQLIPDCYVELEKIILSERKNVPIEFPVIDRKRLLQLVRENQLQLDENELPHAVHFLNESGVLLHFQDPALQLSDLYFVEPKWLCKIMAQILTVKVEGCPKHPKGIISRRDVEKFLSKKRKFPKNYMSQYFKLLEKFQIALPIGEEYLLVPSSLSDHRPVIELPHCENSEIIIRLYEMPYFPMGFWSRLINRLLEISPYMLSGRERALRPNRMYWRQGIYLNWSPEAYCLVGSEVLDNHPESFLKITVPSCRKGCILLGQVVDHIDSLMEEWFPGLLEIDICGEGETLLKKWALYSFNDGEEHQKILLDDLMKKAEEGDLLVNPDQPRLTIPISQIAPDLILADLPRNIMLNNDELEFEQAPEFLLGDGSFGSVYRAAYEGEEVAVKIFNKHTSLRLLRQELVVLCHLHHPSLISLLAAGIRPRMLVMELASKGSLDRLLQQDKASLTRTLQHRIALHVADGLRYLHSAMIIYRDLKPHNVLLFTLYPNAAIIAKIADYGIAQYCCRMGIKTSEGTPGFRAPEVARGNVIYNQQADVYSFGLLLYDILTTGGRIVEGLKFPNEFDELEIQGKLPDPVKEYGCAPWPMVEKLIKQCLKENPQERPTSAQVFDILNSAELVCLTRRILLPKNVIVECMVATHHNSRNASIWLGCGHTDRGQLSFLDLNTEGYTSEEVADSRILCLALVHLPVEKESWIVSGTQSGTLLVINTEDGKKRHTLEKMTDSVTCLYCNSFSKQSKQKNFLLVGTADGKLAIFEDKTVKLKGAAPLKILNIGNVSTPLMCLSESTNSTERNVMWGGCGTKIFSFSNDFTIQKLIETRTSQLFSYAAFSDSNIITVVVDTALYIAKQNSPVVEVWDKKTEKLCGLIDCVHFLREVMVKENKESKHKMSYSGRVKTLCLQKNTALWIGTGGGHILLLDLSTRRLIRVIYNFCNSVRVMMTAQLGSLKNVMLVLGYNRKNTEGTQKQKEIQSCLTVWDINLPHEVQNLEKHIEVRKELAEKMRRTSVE

Compound | remaining binding at 1 µM [1] | remaining binding at 1 µM [2] | remaining binding at 1 µM [3] | remaining binding at 1 µM [4] | remaining binding at 1 µM [5] | remaining binding at 1 µM [6] | remaining binding at 1 µM [7] | remaining binding at 1 µM [8] | remaining binding at 1 µM [9]
CNc1nc(Nc2ccc(C(=O)N3CCOCC3)cc2OC)nc2[nH]cc(C#N)c12 [Example 1, 2-((2-methoxy-4-(morpholine-4-carbonyl)phenyl)amino)-4-(methylamino)-7H-pyrrolo[2,3-d]pyrimidine-5-carbonitrile] | 97% | 91% | 48% | 52% | 99% | 0% | 100% | 92% | 59%
CC1(Nc2nc(Nc3cnn([C@H]4CCN(C5COC5)C[C@@H]4F)c3Cl)nc3[nH]cc(C#N)c23)CC1 [Example 52, 2-((5-chloro-1-((3S,4S)-3-fluoro-1-(oxetane-3-yl)piperidine-4-yl)-1H-pyrazole-4-yl)amino)((1-methylcyclopropyl)amino)-7H-pyrrolo[2,3-d]pyrimidine-5-carbonitrile] | 73% | 31% | 0.35% | 56% | 0.85% | 0% | 32% | 15% | 6.8%
CCNc1nc(Nc2ccc(C(=O)N3CCC(N4CCOCC4)CC3)cc2OC)nc2[nH]cc(C(F)(F)F)c12 [Example 104, (4-((4-(ethylamino)-5-(trifluoromethyl)-7H-pyrrolo[2,3-d]pyrimidine-2-yl)amino)-3-methoxyphenyl)(4-morpholinopiperidine-1-yl)methanone] | 100% | 82% | 7.1% | 100% | 87% | 1.2% | 100% | 71% | 72%
